For this test, the system named is L1210 leukemia ip in BDF1 mice, survival T/C. As to the kind of experiment: NCI In Vivo Anticancer Drug Screen. Data for tumor model L1210 Leukemia (intraperitoneal) in B6D2F1 (BDF1) mice. To be noted: higher = longer survival. The essentials:
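Antitumor effect is assessed in tumor-bearing animals. Survival in the compound arm is compared with a vehicle-dosed control arm and expressed as their quotient.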

The mark [1] stands for this setting: endpoint: mean survival time, dose: 100.0 mg/kg/injection, schedule: Q04DX003 (ip), vehicle: Klucel (hydroxypropylcellulose) (HPC).
[2] abbreviates: endpoint: mean survival time, dose: 200.0 mg/kg/injection, schedule: Q04DX003 (ip), vehicle: Klucel (hydroxypropylcellulose) (HPC).
The mark [3] stands for this setting: endpoint: mean survival time, dose: 400.0 mg/kg/injection, schedule: Q04DX003 (ip), vehicle: Klucel (hydroxypropylcellulose) (HPC).

Data on eight molecules can be found in PubChem BioAssay AID248 (DTP/NCI, 2004).

Values joined by “and” are separate entries in the source; they are usually repeats but may differ in a detail not shown here. Equal entries are not always repeated. Toxic doses and inconclusive results are not listed.

Turning to `N=c1ccn2c(n1)OC1C(OP(=O)(O)O)C(CO)OC12` (stereo unspecified), the T/C was 115 % of control (endpoint: mean survival time, dose: 5.0 mg/kg/injection, schedule: Q01DX009 (ip), vehicle: saline); 172 % of control (endpoint: mean survival time, dose: 25.0 mg/kg/injection, schedule: Q01DX009 (oral), vehicle: saline); 152 % of control (endpoint: mean survival time, dose: 40.0 mg/kg/injection, schedule: Q01DX009 (ip), vehicle: saline); 167 % of control (endpoint: mean survival time, dose: 50.0 mg/kg/injection, schedule: Q01DX009 (oral), vehicle: saline); 175 % of control (endpoint: mean survival time, dose: 80.0 mg/kg/injection, schedule: Q01DX009 (ip), vehicle: saline); 152 % of control and 160 % of control (endpoint: mean survival time, dose: 100.0 mg/kg/injection, schedule: Q01DX005 (ip), vehicle: saline). Also, the T/C was 184 % of control and 185 % of control (endpoint: mean survival time, dose: 100.0 mg/kg/injection, schedule: Q01DX009 (ip), vehicle: saline); 190 % of control (endpoint: mean survival time, dose: 100.0 mg/kg/injection, schedule: Q01DX009 (oral), vehicle: saline); 164 % of control (endpoint: mean survival time, dose: 160.0 mg/kg/injection, schedule: Q01DX009 (ip), vehicle: saline); 168 % of control and 178 % of control (endpoint: mean survival time, dose: 200.0 mg/kg/injection, schedule: Q01DX005 (ip), vehicle: saline); 163 % of control and 195 % of control (endpoint: mean survival time, dose: 200.0 mg/kg/injection, schedule: Q01DX009 (ip), vehicle: saline); 201 % of control (endpoint: mean survival time, dose: 200.0 mg/kg/injection, schedule: Q01DX009 (oral), vehicle: saline). Moreover, the T/C is, setting by setting: (endpoint: mean survival time, dose: 400.0 mg/kg/injection, schedule: Q01DX009 (ip), vehicle: saline) 192 % of control and 212 % of control; (endpoint: mean survival time, dose: 400.0 mg/kg/injection, schedule: Q01DX009 (oral), vehicle: saline) 245 % of control; (endpoint: mean survival time, dose: 800.0 mg/kg/injection, schedule: Q01DX009 (oral), vehicle: saline) 260 % of control; (endpoint: median survival time, dose: 12.5 mg/kg/injection, schedule: Q01DX009 (oral), vehicle: saline) 109 % of control; (endpoint: median survival time, dose: 12.5 mg/kg/injection, schedule: Q03HX008 (oral), vehicle: water) 111 % of control; (endpoint: median survival time, dose: 25.0 mg/kg/injection, schedule: Q01DX009 (oral), vehicle: saline) 109 % of control. For the same molecule, the T/C runs as follows: (endpoint: median survival time, dose: 25.0 mg/kg/injection, schedule: Q03HX008 (oral), vehicle: water) 111 % of control; (endpoint: median survival time, dose: 25.0 mg/kg/injection, schedule: Q03HX024 (oral), vehicle: water) 172 % of control; (endpoint: median survival time, dose: 50.0 mg/kg/injection, schedule: Q01DX009 (oral), vehicle: saline) 109 % of control; (endpoint: median survival time, dose: 50.0 mg/kg/injection, schedule: Q01DX009 (oral), vehicle: water) 150 % of control; (endpoint: median survival time, dose: 50.0 mg/kg/injection, schedule: Q03HX024 (oral), vehicle: water) 188 % of control; (endpoint: median survival time, dose: 100.0 mg/kg/injection, schedule: Q01DX009 (oral), vehicle: water) 166 % of control. The T/C was 194 % of control (endpoint: median survival time, dose: 100.0 mg/kg/injection, schedule: Q03HX024 (oral), vehicle: water); 100 % of control (endpoint: median survival time, dose: 200.0 mg/kg/injection, schedule: Q01DX001 (oral), vehicle: saline); 116 % of control (endpoint: median survival time, dose: 200.0 mg/kg/injection, schedule: Q01DX001 (oral), vehicle: water); 188 % of control (endpoint: median survival time, dose: 200.0 mg/kg/injection, schedule: Q01DX009 (oral), vehicle: water); 161 % of control (endpoint: median survival time, dose: 200.0 mg/kg/injection, schedule: Q03HX008 (oral), vehicle: water); 200 % of control (endpoint: median survival time, dose: 200.0 mg/kg/injection, schedule: Q03HX024 (oral), vehicle: water). Further, the T/C by setting is: (endpoint: median survival time, dose: 400.0 mg/kg/injection, schedule: Q01DX001 (oral), vehicle: saline) 90 % of control; (endpoint: median survival time, dose: 400.0 mg/kg/injection, schedule: Q01DX001 (oral), vehicle: water) 122 % of control; (endpoint: median survival time, dose: 400.0 mg/kg/injection, schedule: Q01DX009 (oral), vehicle: saline) 177 % of control; (endpoint: median survival time, dose: 400.0 mg/kg/injection, schedule: Q01DX009 (oral), vehicle: water) 211 % of control; (endpoint: median survival time, dose: 400.0 mg/kg/injection, schedule: Q03HX008 (oral), vehicle: water) 111 % of control; (endpoint: median survival time, dose: 400.0 mg/kg/injection, schedule: Q03HX024 (oral), vehicle: water) 94 % of control. Also, the T/C was 155 % of control (endpoint: median survival time, dose: 400.0 mg/kg/injection, schedule: Q04DX003 (oral), vehicle: water); 200 % of control (endpoint: median survival time, dose: 800.0 mg/kg/injection, schedule: Q01DX009 (oral), vehicle: saline); 177 % of control (endpoint: median survival time, dose: 800.0 mg/kg/injection, schedule: Q04DX003 (oral), vehicle: water); 154 % of control (endpoint: median survival time, dose: 1600.0 mg/kg/injection, schedule: Q01DX001 (oral), vehicle: saline); 188 % of control (endpoint: median survival time, dose: 1600.0 mg/kg/injection, schedule: Q04DX003 (oral), vehicle: water); 168 % of control (endpoint: median survival time, dose: 3200.0 mg/kg/injection, schedule: Q01DX001 (oral), vehicle: saline). The T/C (endpoint: median survival time, dose: 3200.0 mg/kg/injection, schedule: Q04DX003 (oral), vehicle: water) was 166 % of control.
On to `CC(=O)NC1=C(c2ccccc2)C(=O)c2ccccc21`, for which the T/C is 107 % of control (endpoint: mean survival time, dose: 45.0 mg/kg/injection, schedule: Q01DX001 (ip), vehicle: Klucel (hydroxypropylcellulose) (HPC)); 96 % of control (endpoint: mean survival time, dose: 65.0 mg/kg/injection, schedule: Q01DX001 (ip), vehicle: Klucel (hydroxypropylcellulose) (HPC)); 100 % of control and 104 % of control (endpoint: mean survival time, dose: 100.0 mg/kg/injection, schedule: Q01DX001 (ip), vehicle: Klucel (hydroxypropylcellulose) (HPC)); 107 % of control under setting [1]; 96 % of control (endpoint: mean survival time, dose: 150.0 mg/kg/injection, schedule: Q01DX001 (ip), vehicle: Klucel (hydroxypropylcellulose) (HPC)); 96 % of control and 117 % of control and 91 % of control (endpoint: mean survival time, dose: 200.0 mg/kg/injection, schedule: Q01DX001 (ip), vehicle: Klucel (hydroxypropylcellulose) (HPC)). The T/C is 107 % of control under setting [2]; 104 % of control (endpoint: mean survival time, dose: 300.0 mg/kg/injection, schedule: Q01DX001 (ip), vehicle: Klucel (hydroxypropylcellulose) (HPC)); 97 % of control and 102 % of control and 103 % of control (endpoint: mean survival time, dose: 400.0 mg/kg/injection, schedule: Q01DX001 (ip), vehicle: Klucel (hydroxypropylcellulose) (HPC)); 97 % of control under setting [3].
Take `O=C(O)C1C(c2ccccc2)CC(=O)N1c1ccc(Cl)cc1` (stereo unspecified): the T/C was 102 % of control (endpoint: mean survival time, dose: 100.0 mg/kg/injection, schedule: Q04DX002 (ip), vehicle: Klucel (hydroxypropylcellulose) (HPC)); 91 % of control (endpoint: mean survival time, dose: 200.0 mg/kg/injection, schedule: Q04DX002 (ip), vehicle: Klucel (hydroxypropylcellulose) (HPC)); 94 % of control (endpoint: mean survival time, dose: 400.0 mg/kg/injection, schedule: Q04DX002 (ip), vehicle: Klucel (hydroxypropylcellulose) (HPC)).
Regarding `CC1=CC(=O)CC(C)(C)C1`, the T/C reads like this: (endpoint: mean survival time, dose: 100.0 mg/kg/injection, schedule: Q01DX009 (ip), vehicle: saline with Tween-80) 101 % of control; (endpoint: mean survival time, dose: 200.0 mg/kg/injection, schedule: Q01DX009 (ip), vehicle: saline with Tween-80) 101 % of control; (endpoint: mean survival time, dose: 400.0 mg/kg/injection, schedule: Q01DX009 (ip), vehicle: saline with Tween-80) 90 % of control.
For the molecule `CC(=O)Nc1cc([N+](=O)[O-])ccc1O`, the T/C reads like this: under setting [1], 101 % of control; under setting [2], 101 % of control; under setting [3], 101 % of control.
Take `C=CCNC(=O)C[n+]1cccc(C(=O)NC)c1`: the T/C was 106 % of control (endpoint: mean survival time, dose: 100.0 mg/kg/injection, schedule: Q01DX001 (ip), vehicle: saline); 103 % of control (endpoint: mean survival time, dose: 200.0 mg/kg/injection, schedule: Q01DX001 (ip), vehicle: saline); 97 % of control (endpoint: mean survival time, dose: 400.0 mg/kg/injection, schedule: Q01DX001 (ip), vehicle: saline).
For `O=C(O)CCCCNC(=O)c1ccc([N+](=O)[O-])cc1`, the T/C (endpoint: mean survival time, dose: 100.0 mg/kg/injection, schedule: Q01DX001 (ip), vehicle: saline with Tween-80) is 99 % of control; the T/C (endpoint: mean survival time, dose: 200.0 mg/kg/injection, schedule: Q01DX001 (ip), vehicle: saline with Tween-80) is 94 % of control; the T/C (endpoint: mean survival time, dose: 400.0 mg/kg/injection, schedule: Q01DX001 (ip), vehicle: saline with Tween-80) is 87 % of control.
On to `Cn1c2ccccc2c2nnc(SCCN3CCOCC3)nc21`, for which the T/C is 97 % of control (endpoint: mean survival time, dose: 100.0 mg/kg/injection, schedule: Q04DX002 (ip), vehicle: saline with Tween-80); 93 % of control (endpoint: mean survival time, dose: 200.0 mg/kg/injection, schedule: Q04DX002 (ip), vehicle: saline with Tween-80); 101 % of control (endpoint: mean survival time, dose: 400.0 mg/kg/injection, schedule: Q04DX002 (ip), vehicle: saline with Tween-80).
